For 22 compounds, GI50 and TGI results are on record in PubChem BioAssay (NCI).

Molecules are shown by their SMILES.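 Five concentrations, 48 hours, 96-well plates. The concentration for 50% growth inhibition is given as GI50. TGI: concentration producing complete growth inhibition.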 A value given as a limit tells only on which side of the number the result lay.

Among the test systems are HCC-2998 colon; NCI/ADR-RES ovarian; DU-145 prostate; HT29 colon; MDA-MB-231 breast; SK-MEL-2 melanoma; MALME-3M melanoma; K-562 leukemia; MDA-MB-435; HL-60(TB) leukemia.
Assay in all cases: inhibition of tumour cell growth, NCI panel, 48 h

Regarding `O=C(CC1(O)C(=O)Nc2ccc(Br)cc21)c1ccc(C(=O)NCC2CCC3(CC2)OOC2(CCCCC2)OO3)cc1` (centres undefined), the GI50 in the test with HCC-2998 colon is 12.7 µM; in the test on NCI/ADR-RES ovarian, 15.1 µM; in the test with DU-145 prostate it was 8.77 µM; in the test with HT29 colon, 4.96 µM; in the test on MDA-MB-231 breast, 5.96 µM; in the test with SK-MEL-2 melanoma, 2.92 µM. In addition, the GI50 in the test with MALME-3M melanoma was 2.47 µM. The TGI in the test on HCC-2998 colon came to 37.6 µM; with NCI/ADR-RES ovarian, 69.3 µM; in the test on DU-145 prostate, 39.6 µM; with HT29 colon it was 23 µM; with MDA-MB-231 breast, 37.1 µM; in the test with SK-MEL-2 melanoma, 9.23 µM. Besides, the TGI in the test with MALME-3M melanoma came out at 6.63 µM.
In the case of `Cc1ncc(CO)c(CN)c1O`, the TGI in the test with K-562 leukemia, in the test with HCC-2998 colon, in the test on NCI/ADR-RES ovarian, in the test on MDA-MB-435, with DU-145 prostate and in the test with HT29 colon was above 100 µM each time. The TGI with HL-60(TB) leukemia, in the test on MDA-MB-231 breast, in the test on SK-MEL-2 melanoma and in the test on MALME-3M melanoma was above 100 µM in each case.
Regarding `CC[C@H](Nc1nc(N)nc(N)c1Cl)c1nc2cccc(NCc3ccc(C(=O)NO)cc3)c2c(=O)n1-c1ccccc1`, the GI50 is 1.78 µM in the test on K-562 leukemia; 1.62 µM in the test with HCC-2998 colon; 12.4 µM in the test with NCI/ADR-RES ovarian; 1.7 µM with MDA-MB-435; 2.91 µM in the test on DU-145 prostate; 2.01 µM in the test on HT29 colon. In addition, the results for the GI50 in the test on MDA-MB-231 breast, in the test on SK-MEL-2 melanoma and in the test on MALME-3M melanoma were 1.55 µM, 2.02 µM and 1.36 µM, respectively. The TGI was above 100 µM in the test with K-562 leukemia; 3.22 µM with HCC-2998 colon; above 100 µM in the test with NCI/ADR-RES ovarian; 3.4 µM in the test with MDA-MB-435; 10.5 µM with DU-145 prostate; 5.27 µM with HT29 colon. Further, the TGI in the test on MDA-MB-231 breast is 3.65 µM; in the test with SK-MEL-2 melanoma, 5.27 µM; in the test with MALME-3M melanoma, 4.4 µM.
For the compound `c1ccc2c[n+](CCCCCCCCCC[n+]3ccc4ccccc4c3)ccc2c1`, the TGI with K-562 leukemia, in the test on HCC-2998 colon, in the test with NCI/ADR-RES ovarian, in the test on MDA-MB-435, in the test on DU-145 prostate and in the test with HT29 colon was above 10 µM in each case. The TGI in the test with HL-60(TB) leukemia, in the test with MDA-MB-231 breast, with SK-MEL-2 melanoma and in the test on MALME-3M melanoma was above 10 µM throughout.
Take `CN(C)c1ccc2nc3c(C(=O)O)cc(=O)c(O)c-3oc2c1`: the TGI was 74.8 µM with K-562 leukemia; 85.7 µM with NCI/ADR-RES ovarian; 54.9 µM with MDA-MB-435; above 100 µM with DU-145 prostate; above 100 µM in the test with HT29 colon; 72.3 µM in the test with HL-60(TB) leukemia. The TGI in the test with MDA-MB-231 breast is above 100 µM; in the test on SK-MEL-2 melanoma, 40.2 µM; in the test with MALME-3M melanoma it was 31.7 µM.
For `COc1cc2c(cc1OC)C(Cl)C(c1ccc(Cl)cc1)=C2Cl` (centres undefined), the TGI was found to be 32.9 µM in the test on K-562 leukemia; 28.6 µM in the test with HT29 colon; 41 µM in the test with HL-60(TB) leukemia; 36.3 µM with SK-MEL-2 melanoma; 56.8 µM in the test on MALME-3M melanoma.
With `CC(C)CNc1nc(N)[nH]c(=O)c1NC=O`, the TGI with K-562 leukemia, with HCC-2998 colon, in the test with NCI/ADR-RES ovarian, in the test with MDA-MB-435, in the test with DU-145 prostate and in the test on HT29 colon was above 100 µM throughout. Besides, the TGI in the test with HL-60(TB) leukemia, in the test on MDA-MB-231 breast, in the test with SK-MEL-2 melanoma and with MALME-3M melanoma was above 100 µM throughout.
`O=C(O)c1ccccn1`: the TGI in the test on K-562 leukemia, with NCI/ADR-RES ovarian, in the test with MDA-MB-435, with HT29 colon, in the test on MDA-MB-231 breast and in the test on SK-MEL-2 melanoma was above 100 µM each time.
Consider `NCS(=O)(=O)O`, for which the TGI with K-562 leukemia, in the test on HCC-2998 colon, with NCI/ADR-RES ovarian, in the test with MDA-MB-435, in the test with DU-145 prostate and with HT29 colon was above 100 µM in each case. The TGI in the test on HL-60(TB) leukemia, in the test on MDA-MB-231 breast, in the test with SK-MEL-2 melanoma and in the test with MALME-3M melanoma was above 100 µM throughout.
With `N=C(N)c1ccc(-c2ccc(-c3ccc(Cl)cn3)s2)cc1`, the GI50 with MDA-MB-435 was 1.65 µM; in the test on DU-145 prostate, 1.78 µM; in the test with MDA-MB-231 breast, 1.58 µM; with MALME-3M melanoma it was 1.68 µM. Further, the TGI with MDA-MB-435 was determined as 3.02 µM; with DU-145 prostate it was 3.34 µM; in the test with MDA-MB-231 breast, 3.02 µM; in the test on MALME-3M melanoma it was 3.14 µM.
As to `COc1cc2ccc1-c1cc(ccc1O)CC1c3cc4c(cc3CCN1C)Oc1c(OC)cc3c(c1O4)C(C2)N(C)CC3` (centres undefined), the TGI was 3.27 µM with K-562 leukemia; 3.06 µM in the test with HCC-2998 colon; 3.27 µM in the test with HT29 colon; 4.53 µM in the test with HL-60(TB) leukemia; 3.38 µM in the test on SK-MEL-2 melanoma; 3.48 µM in the test with MALME-3M melanoma.
As for `CN(C)CCNC(=O)c1cccc2nc3c4ccccc4c4ccccc4c3nc12`, the TGI in the test with K-562 leukemia worked out at 3.57 µM; in the test on HCC-2998 colon, 11.5 µM; in the test on MDA-MB-435, 3.42 µM; in the test on DU-145 prostate, 3.2 µM; with HT29 colon, 3.01 µM; in the test on HL-60(TB) leukemia it was 4.09 µM. Moreover, the TGI worked out at 3.32 µM in the test on MDA-MB-231 breast, 8.24 µM in the test with SK-MEL-2 melanoma and 3.6 µM in the test with MALME-3M melanoma.
For the compound `CCOC(=O)c1c2c(c(O)c3ccccc3c(O)n(-c3ccc(C)cc3)c1C)C(=O)C=CC2=O`, the TGI in the test on K-562 leukemia amounted to 47.2 µM; with HCC-2998 colon, 36.9 µM; in the test with NCI/ADR-RES ovarian, 48.7 µM; with MDA-MB-435 it was 35.7 µM; in the test with DU-145 prostate, 91 µM; in the test with HT29 colon, 41.1 µM. Further, the TGI in the test on HL-60(TB) leukemia was 51.4 µM; in the test on MDA-MB-231 breast, 55.7 µM; with SK-MEL-2 melanoma, 64.7 µM; in the test on MALME-3M melanoma, 37.4 µM.
Take `COc1cnc2c(c1)C(=O)c1c-2n(CCCN2CCNCC2)c(=O)c2cc(Cl)ccc12`: the GI50 is 1.25 µM with MDA-MB-435, 0.242 µM in the test with DU-145 prostate, 0.66 µM in the test on HT29 colon and 2.11 µM in the test with SK-MEL-2 melanoma. Moreover, the TGI in the test on MDA-MB-435 was 2.59 µM; in the test on DU-145 prostate, 1.2 µM; in the test on HT29 colon, 2.21 µM; in the test with SK-MEL-2 melanoma it was 4.65 µM.
As for `C[C@H]1CCC/C=C/[C@@H]2C[C@H](O)C[C@H]2[C@H](O)[C@@H](S(=O)CCN)CC(=O)O1` (some centres undefined), the GI50 is 0.132 µM in the test with K-562 leukemia; 0.252 µM in the test on HCC-2998 colon; 0.0196 µM with NCI/ADR-RES ovarian; 0.0513 µM in the test with MDA-MB-435; 0.163 µM in the test on DU-145 prostate; below 0.0158 µM in the test on HT29 colon. The GI50 is 0.0234 µM in the test on MDA-MB-231 breast, 0.111 µM in the test on SK-MEL-2 melanoma and below 0.0138 µM in the test with MALME-3M melanoma. Moreover, the TGI in the test on K-562 leukemia is above 100 µM; with HCC-2998 colon it was 22.3 µM; in the test on NCI/ADR-RES ovarian, 0.137 µM; with MDA-MB-435, above 92.8 µM; with DU-145 prostate, 0.552 µM; in the test on HT29 colon, 0.0378 µM. Moreover, the TGI in the test with MDA-MB-231 breast came to 0.0613 µM; with MALME-3M melanoma it was 0.382 µM.
For the compound `CCOC(=O)N1c2ccccc2S(=O)(=O)c2ccccc21`, the TGI in the test on K-562 leukemia, in the test on HCC-2998 colon, in the test with NCI/ADR-RES ovarian, in the test with MDA-MB-435, with DU-145 prostate and in the test with HT29 colon was above 100 µM throughout. The TGI with HL-60(TB) leukemia, in the test on MDA-MB-231 breast and in the test on SK-MEL-2 melanoma was above 100 µM in each case.
With `COc1ccc(-n2c3c(c4cc(O)ccc42)C(=O)c2ccccc2C3=O)cc1`, the TGI with K-562 leukemia is above 100 µM; in the test with NCI/ADR-RES ovarian, 24.9 µM; with MDA-MB-435, above 100 µM; in the test with DU-145 prostate, above 100 µM; in the test on HT29 colon, 18.6 µM; in the test on HL-60(TB) leukemia, above 100 µM. Besides, the values for the TGI in the test with MDA-MB-231 breast, in the test with SK-MEL-2 melanoma and in the test with MALME-3M melanoma were 13.6 µM, above 100 µM and above 100 µM, respectively.
For `Oc1cc(O)cc(/C=C/c2ccc(O)c(O)c2)c1`, the TGI in the test on K-562 leukemia was above 58.9 µM; with HCC-2998 colon, 34.4 µM; with NCI/ADR-RES ovarian, 51 µM; in the test on HT29 colon it was 57 µM; with HL-60(TB) leukemia, above 28.4 µM; with SK-MEL-2 melanoma, 16 µM. In addition, in the test on MALME-3M melanoma, the TGI was above 100 µM.
With `Cc1cc(=O)[nH]c(NN2C(Cl)C(=O)C2c2cccc([N+](=O)[O-])c2)n1` (centres undefined), the TGI in the test with K-562 leukemia was determined as 55.3 µM; with HCC-2998 colon, 36.8 µM; with HT29 colon it was 49.9 µM; in the test with HL-60(TB) leukemia it was 36.8 µM; in the test on SK-MEL-2 melanoma, 36.2 µM.
As to `CN(C)c1ccc(C2CC(=O)C(C#N)=C(c3ccccc3)NN2C)cc1` (centres undefined), the TGI with HCC-2998 colon is above 100 µM; in the test with HT29 colon it was 24.5 µM; in the test with HL-60(TB) leukemia, 19.9 µM; in the test with SK-MEL-2 melanoma, 57.2 µM; in the test with MALME-3M melanoma it was above 100 µM.
Regarding `CCOC(=O)C1=C(C)N(C)C(=S)NC1c1cccc(O)c1` (centres undefined), the TGI in the test with K-562 leukemia is above 100 µM; in the test on HCC-2998 colon, 92.6 µM; in the test with NCI/ADR-RES ovarian it was 54.9 µM; with MDA-MB-435, 34.9 µM; in the test with DU-145 prostate it was above 100 µM; with HT29 colon, above 100 µM. In addition, the TGI was 64 µM in the test on HL-60(TB) leukemia, above 100 µM with MDA-MB-231 breast and 97.2 µM in the test with SK-MEL-2 melanoma.
Regarding `CN(C)[C@@H]1C(=O)C(C(=O)NCNCCCC(=O)O)=C(O)[C@@]2(O)C(=O)C3=C(O)c4c(O)cccc4[C@@](C)(O)[C@H]3C[C@@H]12`, the TGI with K-562 leukemia, in the test with HCC-2998 colon, in the test on HT29 colon, in the test on HL-60(TB) leukemia and with SK-MEL-2 melanoma was above 100 µM throughout.
